The nature of this data set: Rat CNS exposure (plasma, CSF, brain). Format: in vivo, male SD rats. The conditions noted are these: SC 1 mg/kg, 1.00 h. As for the experimental part:
These rats were typically about 6-8 weeks old, weighing 200 g to 300 g. Animals were fasted overnight and free access to food 4 hours after dosing. A required volume of vehicle was added to reach the target concentration of the test article and vehicle component to prepare for the dosing. The dosing vehicle was PEG400 or 30% PEG400 in saline for IV, or 0.5% methylcellulose in water for PO. For IV dosing, the animals were administered intravenously via tail vein. For PO dosing, the animals were administered via oral gavage. After dosing, blood sample was collected (˜0.2 mL per time point) through jugular vein or heart puncture. Blood of each sample was transferred into plastic micro centrifuge tubes containing EDTA-K2. Collection tubes with blood samples and anticoagulant were inverted several times for proper mixing of the tube contents and then placed on wet ice. The blood samples were centrifuged at 2000 g for 5 minutes at 4° C. to obtain plasma which was stored in a freezer at −75±15° C. prior to analysis. Samples were analyzed using LC-MS/MS. WinNonlin were used for pharmacokinetic calculations.
For CSF sampling, after anesthesia, the foramen magnum was exposed, and a syringe was used with a venoclysis needle to sample the CSF. The CSF samples were stored in polypropylene tubes, then stored in a freezer at −75±15° C. prior to analysis.
For brain sampling, the rats were fully exsanguinated by using a risen of carbon dioxide prior to brain collection. Brain samples were then collected at adopted time point, quick frozen and kept at −75±15° C. All brain samples were weighted and homogenated with PBS by brain weight (g) to PBS volume (mL) ratio 1:3 before analysis. The actual concentration is the detected value multiplied by the dilution factor.

In the case of `Cc1ncccc1[C@@H](O)CNC(C)(C)C` [Compound 03-115], the “Concentration, Brain” value came to 142 ng/g; the “Concentration, CSF” value was 56.2 ng/mL; the “Concentration, Plasma” value is recorded as 149 ng/mL.

For the origin of these results see patent US12448352B2, “Beta adrenergic agonist and methods of using the same” (Curasen Therapeutics, Inc., priority 2019, dated 2025).
